Assay [1] deals with Sprague Dawley male rats. Briefly: Sexual behaviour of normal (sexually vigorous) male rats. It counts as in vivo, rat. The settings on record: Compound (1) 15 mg/kg or fluoxetine 20 mg/kg i.p., 1 h before test, vs vehicle. As to the method: The potentially stimulatory effect of Compound (1) on male sexual behaviour has been tested on sexually vigorous rats. Sprague Dawley male rats (Charles River, UK) were kept, 4 rats per cage, in a reversed lighting regime (12:12 hours, lights off at 5.00 h), with free access to food and water. The rats were pre-selected by being presented with a receptive female at 4 days intervals, i.e. every third day (having 2 clear days between presentations) until completing 6-7 days of baseline determination. The animals showing consistently vigorous behaviour (ejaculatory latencies <300 s) were chosen for further experiments (n=24). Animals were randomised into three groups. All animals received all three treatments following a latin-square design. Treatments were administered once a week, with a baseline test in between treatments (4 days intervals between baseline and test day). Treatments were Compound (1) (15 mg/kg, dissolved in 50% 2-hydroxypropyl-β-cyclodextrin in saline), vehicle, or Fluoxetine (20 mg/kg dissolved in 100% DMSO). All treatments were administered i.p. in a 1 ml/kg volume, 1 h before tests.
For all the sexual behaviour tests, the males were placed in an observation arena (50-60 cm diameter), starting 5 hours into the dark cycle and observed under red illumination. Three to 4 minutes after placing the male in the arena, a receptive female (ovariectomised, bearing a 7 mm Silastic implant of oestradiol benzoate) was introduced to the arena and the following parameters noted: Mount Latency: time (in seconds) taken between introduction of female and first mount. A maximum time of 15 minutes (900 seconds) was allowed, and the test terminated if no mounts were recorded within that time (FIG. 11), Intromission Latency: time (in seconds) taken between introduction of female and first intromission (FIG. 12), Number of Mounts: to reach ejaculation. When ejaculation was not reached, the number of mounts was not analyzed, Number of Intromissions: to reach ejaculation. When ejaculation was not reached, the number of intromissions was not analyzed (FIG. 13 is number of mounts+intromissions), Ejaculation Latency: time (in seconds) taken from first intromission to ejaculation. A maximum time of 30 minutes (1800 seconds) was given, and the test terminated if ejaculation was not achieved in that time (FIG. 14), and Refractory Period: time (in seconds) taken from ejaculation to the first mount of the next series of sexual activity. In those animals reaching ejaculation the test was terminated at the end of the refractory period, as indicated by the first mount of the next sexual cycle (FIG. 15).
A one-way ANOVA followed by Dunnett's t test was used to compare treated vs vehicle groups each day of testing, for all the sexual behaviour parameters. (*P<0.05, **P<0.01; n=15-16).

Assay [2] has as its system Sprague Dawley male rats. The assay is described as follows: Sexual behaviour of sexually dysfunctional (fluoxetine-treated) male rats. The settings on record: fluoxetine 20 mg/kg i.p. 3 days (vs vehicle+vehicle); day 4 Compound (1) 15 mg/kg or yohimbine 2 mg/kg i.p. 1 h before test (vs fluoxetine+vehicle). It counts as in vivo, rat. As to the method: Sprague Dawley male rats (Charles River, UK) were kept, 4 rats per cage, in a reversed lighting regime (12:12 hours, lights off at 5.00 h), with free access to food and water. The rats were pre-selected by being presented with a receptive female at […], i.e. every third day (haying 2 clear days between presentations) until completing 6-7 trials of baseline determination. The animals showing consistently vigorous behaviour (ejaculatory latencies <300 s) were chosen for further experiments. Animals were treated for 3 consecutive days with either vehicle (water) or fluoxetine (20 mg/kg, i.p., in a 2 ml/kg dosing volume). On the fourth day, the animals treated with water received vehicle (veh+veh) and the animals treated with fluoxetine received one of the three following treatments: Compound (1) (15 mg/kg, dissolved in 50% 2-hydroxypropyl-β-cyclodextrin in saline), vehicle (cyclodextrine), or yohimbine (2 mg/kg dissolved in water). All treatments were administered i.p. in a 1 ml/kg volume, 1 h before tests.
For all the sexual behaviour tests, the males were placed in an observation arena (50-60 cm diameter), starting 5 hours into the dark cycle and observed under red illumination. Three to 4 minutes after placing the male in the arena, a receptive female (ovariectomised, bearing a 7 mm Silastic implant of oestradiol benzoate) was introduced to the arena and the following parameters noted: Mount Latency: time (in seconds) taken between introduction of female and first mount. A maximum time of 15 minutes (900 seconds) was allowed, and the test terminated if no mounts were recorded within that time (FIG. 16), Ejaculation Latency: time (in seconds) taken from first intromission to ejaculation. A maximum time of 30 minutes (1800 seconds) was given, and the test terminated if ejaculation was not achieved in that time (FIG. 17), Percentage of males achieving ejaculation within 30 minutes was calculated (FIG. 18).
A one-way ANOVA followed by Dunnett's t test was used to compare the fluoxetine+vehicle group and other groups for mount and ejaculatory latencies. Percentage of animals ejaculating was analysed using a Chi-square test followed by Fisher's test. (*: P<0.05, **: P<0.01, ***: P<0.001; n=15-19).

Assay [3] deals with ovariectomised female Sprague Dawley rats. Briefly: Inhibition of female rat sexual proceptivity by NMB and its antagonism. It counts as in vivo. The settings on record: NMB 100 ng i.c.v. 10 min before test. As for the experimental part:
Ovariectomised female rats (Sprague Dawley, obtained from Charles River, UK) were stereotaxically implanted (coordinates 0.89 mm behind Bregma, 1.3 mm lateral and 2.5 mm vertical) with stainless steel cannulae (6 mm long, O.D. 0.75 mm), held in place with dental cement. Animals were housed in groups of three and returned to a reversed lighting system of 12 h light:dark (lights off 5.00-17.00 h). Correct placement of the cannulae was assessed post-mortem. Rats were used for tests two weeks after ovariectomy (one week after cannulation). The experiments started at least 5 h into the dark period. Forty eight hours before tests, the animals were primed with 5 μg oestradiol benzoate (OB) (s.c, in corn oil) and adapted to the apparatus (in the absence of stimuli animals) for 10 min on 2 consecutive days prior testing. The 10 min test was carried out as previously described. The difference in the percentage of time spent investigating male minus female was calculated, out of the total time spent investigating stimuli.
Progesterone (Prog, 0.5 mg/0.1 ml) was dissolved in corn oil and administered subcutaneously (s.c.), 4 h before test, to induce proceptive behaviour. Compound (1) (15 mg/kg, i.p.) was dissolved in 50% 2-hydroxypropyl-β-cyclodextrin in saline and administered 1 h before the i.c.v. administration. Neuromedin B was obtained from Bachem, UK. It was dissolved in isotonic saline and administered i.c.v. over a 30 sec period, with the aid of a pump set to deliver a flow of 10 μl/min, 10 min before tests. The dosing volume was 5 μl/rat. Each rat received a total amount of 100 ng.
From the present study we can conclude that stimulation of BB1 receptors with an agonist results in inhibition of proceptive behaviour. This inhibitory effect may be prevented by the presence of an antagonist. e.g. Compound (1) In FIG. 5 the bars represent percentage of time spent investigating male, minus the percentage of time spent investigating the female stimuli+SEM, (n=8-12 per group). ***P<0.001 vs progesterone (One-way ANOVA followed by Dunnett's test).

For the compound `CNCCC(Oc1ccc(C(F)(F)F)cc1)c1ccccc1` (stereo not drawn) [fluoxetine], in the assay on Sprague Dawley male rats [1], the Ejaculation latency entry was “also increased”, the Intromission latency result is “significantly increased”, the Mount latency result was “significantly increased” and the Refractory period result is “also increased”. Further, the “number of mounts and intromissions required to achieve ejaculation” value in the assay on Sprague Dawley male rats [1] is recorded as “No changes”. Moreover, in the assay on Sprague Dawley male rats [2], the Ejaculation latency entry is “significantly increased”, the Mount latency result is “significantly increased” and the “percentage of animals ejaculating (within 30 minutes)” value was “significantly lower”.
As to neuromedin B [NMB], the “proceptivity in progesterone-treated rats” value in assay [3] is “significantly reduced proceptivity”.

For the origin of these results see US20040087561A1, “Treatment of sexual dysfunction” (priority 2000, published 2004).
